In the supplement of paper PMC10307832:

Tests used:
Assay in all cases: relative viability (nuclei count vs DMSO), 5 days (fraction); higher = more cells survive
Obatoclax + Decitabine = compound: COC1=CC(c2cc3ccccc3[nH]2)=N/C1=C\c1[nH]c(C)cc1C [Obatoclax] + Nc1ncn([C@H]2C[C@H](O)[C@@H](CO)O2)c(=O)n1 [Decitabine] (partner 2 µM)
Method in brief: (§1)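 Medians of duplicate plates are given as relative viability. That measure is the nuclei count in treated wells divided by the count in vehicle wells. Counts were taken on 4× images of lung cancer cell lines in 1536-well plates, 5 days after pin-tool dosing the day after seeding with one drug alone or a fixed anchor-drug dose plus five library-drug doses (not always all listed) in √10 steps.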

Bortezomib + Tozasertib = compound: CC(C)C[C@H](NC(=O)[C@H](Cc1ccccc1)NC(=O)c1cnccn1)B(O)O [Bortezomib] + Cc1cc(Nc2cc(N3CCN(C)CC3)nc(Sc3ccc(NC(=O)C4CC4)cc3)n2)n[nH]1 [Tozasertib] (partner 0.1 µM)
Method in brief: as §1

Obatoclax + Pictilisib = compound: COC1=CC(c2cc3ccccc3[nH]2)=N/C1=C\c1[nH]c(C)cc1C [Obatoclax] + CS(=O)(=O)N1CCN(Cc2cc3nc(-c4cccc5[nH]ncc45)nc(N4CCOCC4)c3s2)CC1 [Pictilisib] (partner 1 µM)
Method in brief: as §1

Obatoclax + Bortezomib = compound: COC1=CC(c2cc3ccccc3[nH]2)=N/C1=C\c1[nH]c(C)cc1C [Obatoclax] + CC(C)C[C@H](NC(=O)[C@H](Cc1ccccc1)NC(=O)c1cnccn1)B(O)O [Bortezomib] (partner 0.002 µM)
Method in brief: as §1

## NCI-H650
Obatoclax + Decitabine; first compound 0.01 µM
  relative viability: 0.299
Obatoclax + Decitabine; first compound 0.03162 µM
  relative viability: 0.312
Obatoclax + Decitabine; first compound 0.3162 µM
  relative viability: 0.237
Obatoclax + Decitabine; first compound 1 µM
  relative viability: 0.217
Bortezomib + Tozasertib; first compound 0.000632 µM
  relative viability: 0.697
Bortezomib + Tozasertib; first compound 0.002 µM
  relative viability: 0.637
Bortezomib + Tozasertib; first compound 0.006325 µM
  relative viability: 0.286
Bortezomib + Tozasertib; first compound 0.02 µM
  relative viability: 0.133
Obatoclax + Pictilisib; first compound 0.01 µM
  relative viability: 0.812
Obatoclax + Pictilisib; first compound 0.03162 µM
  relative viability: 0.722
Obatoclax + Pictilisib; first compound 0.1 µM
  relative viability: 0.597
Obatoclax + Pictilisib; first compound 0.3162 µM
  relative viability: 0.462
Obatoclax + Pictilisib; first compound 1 µM
  relative viability: 0.333
Obatoclax + Bortezomib; first compound 0.01 µM
  relative viability: 0.795
Obatoclax + Bortezomib; first compound 0.03162 µM
  relative viability: 0.732
Obatoclax + Bortezomib; first compound 0.1 µM
  relative viability: 0.455
Obatoclax + Bortezomib; first compound 0.3162 µM
  relative viability: 0.504
Obatoclax + Bortezomib; first compound 1 µM
  relative viability: 0.337
